Assay results as given in paper PMC9236248, “Ucl fimbriae regulation and glycan receptor specificity contribute to gut colonisation by extra-intestinal pathogenic Escherichia coli” (PLoS Pathogens, 2022).
Several values for one entry are separate records, joined by “and”; a condition that tells them apart may be missing. Equal entries are not always repeated.

Legend:
UcaD^LD = UcaD^LD (Proteus mirabilis, UniProt B4EV65); assay: Soaking of pre-formed UcaD^LD crystals with monosaccharides (X-ray crystallography); format: binding, P. mirabilis PM54; settings: 0.1-0.2 M monosaccharide, 48 hours soak
Procedure: Crystals were produced by the hanging drop method. Structural analyses were carried out using DALI [22], and PyMOL (http://www.pymol.org). Figures were generated using PyMOL. The UclD^LD structure was refined to final Rwork/Rfree values of 24.8%/30.6%; the UcaD^LD structure was refined to final Rwork/Rfree values of 16.9%/19.2%, respectively (Table A in S1 Text). For UcaD^LD:monosaccharide complexes, coordinates and structure factors have been deposited in the PDB with IDs 7MZQ (Fuc complex), 7MZR (Glc complex), and 7MZS (Gal complex).
157 flash-cooling in liquid nitrogen. X-ray diffraction data were collected from a single crystal at the
158 Australian Synchrotron MX2 beamline, using a wavelength of 0.9537 Å. Data collection was
159 performed using Blu-Ice software, indexed and integrated using MOSFLM and scaled with
160 AIMLESS within the CCP4 suite. The structure was solved by molecular replacement using
161 PHASER [23] and UclDLD as the template. The model was refined using Phenix and structure
The structure was refined to final Rwork/Rfree values
163 of 16.9 %/19.2 %, respectively (Table A in S1 Text). The final UcaDLD model contains residues 21-
165 disordered or flexible conformation in the crystals. Coordinates and structure factors have been
166 deposited in the PDB with ID 7MZO.
167 UcaDLD:monosaccharide complexes: Pre-formed UcaDLD and UclDLD crystals were soaked with
168 0.1-0.2 M of the monosaccharides Fuc, Glc, Gal, GlcNAc, GalNAc or Neu5Ac for 48 hours in the
169 crystallisation solution (0.1 M sodium citrate buffer pH 4.5-5.5, 2-3 M NaCl). The crystals were
170 cryoprotected in Paratone-N and flash-cooled at 100 K. X-ray diffraction data were collected from
171 single crystals on the MX2 beamline at the Australian Synchrotron, using a wavelength of 0.9537 Å.
172 The data-sets was processed using either MOSFLM (Gal complex), or XDS (Fuc and Glc complexes)
173 [27] and scaled using AIMLESS in the CCP4 suite. The structures were solved by molecular
174 replacement using PHASER [23] and ligand-free UcaDLD as the template. The models were refined
175 using Phenix, and structure validations were performed using MolProbity. Coordinates and
176 structure factors have been deposited in the PDB with IDs 7MZQ (Fuc complex), 7MZR (Glc
177 complex), and 7MZS (Gal complex).

UclD^LD [1] = target: T1, UclD^LD (Escherichia coli, UniProt Q8GA71); assay: SPR analysis of glycans on immobilized UclD lectin domain; parameters: species or system E. coli strain F11; settings: single cycle kinetics, read-out: KD, binding affinity to UclD^LD determined by SPR
T1 sequence (Q8GA71 21-221): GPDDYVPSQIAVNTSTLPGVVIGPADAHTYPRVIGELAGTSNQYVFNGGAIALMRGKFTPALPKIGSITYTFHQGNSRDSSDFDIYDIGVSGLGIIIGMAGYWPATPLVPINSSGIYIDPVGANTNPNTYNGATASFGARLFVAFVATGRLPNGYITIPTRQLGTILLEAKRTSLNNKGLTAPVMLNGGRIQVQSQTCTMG
Procedure: 126 described with minor modifications. Briefly, UclD and UcaD were immobilized onto flow cells
127 of a CM5 sensor chip using amine coupling at 20 µg/mL in 10 mM sodium acetate pH 4.0 and at a
128 flow rate of 5 µL/min for 10 minutes. Glycans were chosen based on positive glycan array results for
129 each of the proteins with each glycan run across a dilution range starting at a maximum concentration
130 of 100 µM and minimum concentrations tested being 1.6 nM using single cycle kinetics. Results were
131 analysed using the Biacore T200 evaluation software.
132 Crystallization and crystal structure determination.
133 UclDLD: UclDLD crystals were produced using the hanging drop method, with drops containing 1 µL
134 of protein (10 mg/mL) and 1 µL of well solution (20-25% w/v PEG 3350, 0.1 M Bis-Tris propane
135 pH 6.5, 0.2 M sodium iodide). The crystals appeared within 1-5 days. The crystals were cryoprotected
136 in glycerol (80% well solution and 20% (v/v) glycerol) before flash-cooling in liquid nitrogen. X-ray
137 diffraction data were collected from a single crystal at the Australian Synchrotron MX1 beamline,
138 using a wavelength of 0.9537 Å. Data collection was performed using Blu -Ice software, indexed
139 and integrated using MOSFLM and scaled with AIMLESS within the CCP4 suite. Molecular […]
142 we determined the UclDLD structure by SAD phasing using the CRANK2 [19] pipeline of the CCP4 […]

UclD = settings: galactose at 1 mM alone
OxyR-6xHis = target: T2, OxyR-6xHis (UniProt P0ACQ4); assay: EMSA
T2 sequence: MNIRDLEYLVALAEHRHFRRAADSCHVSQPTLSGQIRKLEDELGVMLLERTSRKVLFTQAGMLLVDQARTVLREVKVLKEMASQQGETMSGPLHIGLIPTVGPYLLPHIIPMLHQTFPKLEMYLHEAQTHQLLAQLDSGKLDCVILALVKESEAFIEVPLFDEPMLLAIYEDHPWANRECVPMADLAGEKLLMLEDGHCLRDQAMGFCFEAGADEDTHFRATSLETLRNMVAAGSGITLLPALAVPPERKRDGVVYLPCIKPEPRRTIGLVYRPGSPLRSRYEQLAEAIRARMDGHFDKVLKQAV

UclD^LD [2] = target: T1, UclD^LD; assay: Glycan array analysis (358 glycan structures), UclD; settings: yes/no binding

Chain of UcaD^LD (B4EV65 entry or part of it): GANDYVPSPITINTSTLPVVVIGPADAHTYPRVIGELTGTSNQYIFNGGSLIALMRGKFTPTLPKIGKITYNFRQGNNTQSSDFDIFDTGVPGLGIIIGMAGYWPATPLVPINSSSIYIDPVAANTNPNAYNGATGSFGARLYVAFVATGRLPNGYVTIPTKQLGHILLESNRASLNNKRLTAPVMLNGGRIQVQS

Compound	Monosaccharide electron density / binding in soaked UcaD^LD crystals (UcaD^LD)	other results
C[C@H](O)[C@@H](O)[C@@H](O)[C@H](O)C=O [Fuc, fucose]	Clear monosaccharide electron density was observed	–
OC[C@H]1OC(O)[C@H](O)[C@@H](O)[C@@H]1O (some centres unmarked) [Glc, glucose]	Clear monosaccharide electron density was observed	–
CC(=O)N[C@@H]1[C@@H](O)[C@H](O)[C@@H](CO)O[C@H]1O [GlcNAc, N-acetylglucosamine]	not	–
CC(=O)N[C@H]1[C@H]([C@H](O)[C@H](O)CO)OC(O)(C(=O)O)C[C@@H]1O (some centres unmarked) [Neu5Ac, N-acetylneuraminic acid]	not	–
CC(=O)N[C@H]1[C@H]([C@H](O)[C@H](O)CO)O[C@@](O[C@H]2[C@@H](O)[C@@H](CO)O[C@@H](O[C@@H]([C@H](O[C@@H]3O[C@@H](C)[C@@H](O)[C@@H](O)[C@@H]3O)[C@H](C=O)NC(C)=O)[C@H](O)CO)[C@@H]2O)(C(=O)O)C[C@@H]1O [SialylLewis X, Neu5Acα2-3Galβ1-4(Fucα1–3)GlcNAc]	–	Kd (UclD^LD [1]): 2520 nM
O=C[C@H](O)[C@@H](O)[C@@H](O)[C@H](O)CO [galactose]	Clear monosaccharide electron density was observed	Response 15 seconds after injection-B (UclD): 6.3 RU and ~ 6.3 RU
CO[C@@H]1O[C@H](CO)[C@H](O)[C@H](O)[C@H]1O [β-methyl-galactose]	did not observe binding	–
AATAGGTCGCTCATTTCAGGGTAAAGCATATCTTTTGTCATTACCAACACAATAAATATGGTTTTTGATCGTTTTTCCCGATCGTTTTAGCAATCATGATATGTGCAATCTATCATACGCTGGTTATCGATCGGTAAAAACATTTTGAAAATGATTGTTTTGTTGGGGATGATTGCTGAACAAATGATCAATACTGGAATTAAACAGGAATTCATTTTATGAAAATAAAAGTTATAGCATTGGCTACATTTGTTTCTGCTG (double strand) [Cy3-Pucl-78T]	–	binding (OxyR-6xHis): binds
asialo-GM1	–	Binding to UclD^LD on glycan array (UclD^LD [2]): did not identify interactions
lactosyl ceramide	–	Binding to UclD^LD on glycan array (UclD^LD [2]): did not identify interactions
